Test results from publication PMC4149375, “Potential of 2-Hydroxy-3-Phenylsulfanylmethyl-[1,4]-Naphthoquinones against Leishmania (L.) infantum: Biological Activity and Structure-Activity Relationships” (PLoS ONE, 2014).
pIC50: −log10 of the molar value. Read-outs that look alike come from different tables or passages of the source.

Tests used:
[1] = tested on: L. (L.) infantum promastigotes; assay: Antileishmanial activity against promastigotes, MTT assay; format: cell-based, Leishmania (L.) infantum; conditions: 48 h at 24°C, highest concentration 200 µM, na = not active, read-out: Promastigotes IC50 (C.I.95%)
Description: (§1) L. (L.) infantum (MHOM/BR/1972/LD) promastigotes were maintained in M-199 medium supplemented with 10% fetal bovine serum (FBS) and 0.25% hemin at 24°C. L. (L.) infantum was maintained in golden hamsters for up to approximately 60–70 days post-infection. The amastigotes were obtained from the spleens of previously infected hamsters by differential centrifugation. The macrophages were collected from the peritoneal cavity of BALB/c mice by washing with RPMI-1640 (without phenol red and supplemented with 10% FBS). NCTC (clone 929) murine conjunctive cells were maintained in RPMI-1640 (without phenol red and supplemented with 10% FBS) at 37°C in a humidified containing 5% CO2.
Promastigotes were counted in a Neubauer hemocytometer and seeded at 1×10^6 cells per well in 96-well microplates using miltefosine as standard drug. The tested compounds were incubated at the highest concentration of 200 µM for 48 h at 24°C. Parasite viability was determined using the MTT assay. Briefly, 3-[4,5-dimethylthiazol-2-yl]-2,5-diphenyltetrazolium bromide (MTT) was dissolved in phosphate-buffered saline (PBS) at 5 mg/mL, sterilized through 0.22 µm membranes and incubated with cells (20 µL/well) for 4 h at 24°C. The extraction of the mitochondrial formazan was done with 80 µL of 10% SDS for 18 h at 24°C. The optical density was determined in FilterMax F5 (Molecular Devices) at 570 nm. Promastigotes incubated without compounds were used as the viability control (100% viability) and without cells (blank).
(§2) The obtained data represent the mean and standard deviation of two independent experiments performed in duplicate. The IC50 and CC50 values were calculated using sigmoid dose-response curves performed using GraphPad Prism version 5.0 (GraphPad Software, San Diego, CA, USA), and the 95% confidence intervals (95% CI) were included. The ANOVA test was performed to evaluate the significance (p<0.05) of data.

[2] = tested on: intracellular L. (L.) infantum amastigotes; assay: Activity against intracellular amastigotes in infected macrophages, Giemsa counting; format: cell-based, Leishmania (L.) infantum; conditions: for pIC50 / Amastigotes IC50 (C.I.95%): BALB/c peritoneal macrophages infected with amastigotes, 120 h at 37°C, na = not active; for pIC50: read-out: Amastigotes IC50 (C.I.95%)
Description: as §1
The activity against intracellular L. (L.) infantum amastigotes was determined in infected macrophages. Macrophages were obtained as previously described and seeded for 24 h at 1×10^5 cells/well in 16-well slide chambers (Nunc). Amastigotes were isolated from the spleens of previously infected hamsters, separated by differential centrifugation and added to the macrophages at a ratio of 1∶10 (macrophage/amastigotes) for 24 h at 37°C. Non-internalized parasites were removed by washing once with medium and the cells were then incubated with the test compounds for 120 h at 37°C in 5% CO2, using miltefosine as standard drug. At the end of the assay, the cells were fixed in methanol, stained with Giemsa and observed under a light microscope to determine the number of intracellular parasites. The number of amastigotes was determined in 400 macrophages from the drug-treated and control wells [15].
as §2

[3] = tested on: NCTC clone 929 murine conjunctive cells; assay: Cytotoxicity against mammalian cells, MTT assay; format: cell-based; conditions: NCTC clone 929, 48 h at 37°C, highest concentration 200 µM; for CC50: read-out: Cytotoxicity CC50 (C.I.95%)
Description: as §1
(§3) NCTC cells were seeded at 6×10^4 cells/well in 96-well microplates at 37°C in a 5% CO2. The mammalian cells were incubated with tested compounds to the highest concentration of 200 µM for 48 h at 37°C, using miltefosine as standard drug. The viability of the cells was determined by MTT assay at 570 nm. The selectivity index (SI) was determined considering the following equation: CC50 NCTC cells/IC50 amastigotes.
as §2

[4] = Cytotoxicity against mammalian cells, MTT assay; format: cell-based, murine; conditions: mouse, NCTC clone 929 murine conjunctive cells, NCTC clone 929, 48 h at 37°C, highest concentration 200 µM, read-out: Cytotoxicity CC50 (C.I.95%)
Description: as §1, §3, §2

| pIC50 ([2]; Leishmania infantum, Peritoneal macrophage, in Mus musculus) | SMILES | pIC50 [1] | pIC50 [2] | CC50 [3] [µM] | Amastigotes IC50 (C.I.95%) [2] | Cytotoxicity CC50 (C.I.95%) [3] | pIC50 ([1]; Leishmania infantum) | S.I. selectivity index (CC50 mammalian cells/IC50 amastigotes) ([2]; CC50 NCTC cells/IC50 amastigotes) | CC50 at 48 h [4] [µM] |
| --- | --- | --- | --- | --- | --- | --- | --- | --- | --- |
| – | Cc1ccc(SCC2=C(O)C(=O)c3ccccc3C2=O)cc1 [Compound 1] | < 3.70 | < 3.70 | 89.1 | – | – | – | – | – |
| – | O=C1C(O)=C(CSc2ccccc2)C(=O)c2ccccc21 [Compound 2] | 3.91 | – | 84.7 | no activity | – | – | – | – |
| – | COc1ccc(SCC2=C(O)C(=O)c3ccccc3C2=O)cc1 [Compound 3] | 4.12 | – | 92.6 | no activity | – | – | – | – |
| – | O=C1C(O)=C(CSc2ccc(Cl)cc2)C(=O)c2ccccc21 [Compound 4] | 4.07 | – | 82.2 | no activity | – | – | – | – |
| – | O=C1C(O)=C(CSc2ccc(F)cc2)C(=O)c2ccccc21 [Compound 5] | 3.89 | – | 97.9 | no activity | – | – | – | – |
| – | CSc1ccc(SCC2=C(O)C(=O)c3ccccc3C2=O)cc1 [Compound 6] | 3.72 | – | 100 | no activity | – | – | – | – |
| – | O=C1C(O)=C(CSc2ccc([N+](=O)[O-])cc2)C(=O)c2ccccc21 [Compound 7] | 5.07 | – | 85.5 | no activity | – | – | – | – |
| – | CCCSCC1=C(O)C(=O)c2ccccc2C1=O [Compound 9] | < 3.70 | < 3.70 | > 200 | – | lack of toxicity | – | – | – |
| – | Cc1ccccc1SCC1=C(O)C(=O)c2ccccc2C1=O [Compound 13] | < 3.70 | < 3.70 | > 200 | – | lack of toxicity | – | – | – |
| – | Cc1cccc(SCC2=C(O)C(=O)c3ccccc3C2=O)c1 [Compound 14] | < 3.70 | < 3.70 | > 200 | – | lack of toxicity | – | – | – |
| – | O=C1C(O)=C(CSc2ccc3ccccc3c2)C(=O)c2ccccc21 [Compound 15] | < 3.70 | < 3.70 | > 200 | – | lack of toxicity | – | – | – |
| – | O=C1C(O)=C(C(Sc2ccc([N+](=O)[O-])cc2)c2ccccc2)C(=O)c2ccccc21 (stereo not drawn) [Compound 19] | 5.04 | – | 69.5 | no activity | – | – | – | – |
| – | Cc1cccc(SC(C2=C(O)C(=O)c3ccccc3C2=O)c2ccccc2)c1 (stereo not drawn) [Compound 20] | 4.58 | 4.83 | 138 | – | – | – | – | – |
| – | CCCSC(C1=C(O)C(=O)c2ccccc2C1=O)c1ccccc1 (stereo not drawn) [Compound 24] | < 3.70 | < 3.70 | > 200 | – | lack of toxicity | – | – | – |
| – | Cc1ccc(SC(C2=C(O)C(=O)c3ccccc3C2=O)c2ccc([N+](=O)[O-])cc2)cc1 (stereo not drawn) [Compound 25] | 3.97 | – | 42.6 | no activity | – | – | – | – |
| – | O=C1C(O)=C(C(Sc2ccccc2)c2ccc([N+](=O)[O-])cc2)C(=O)c2ccccc21 (stereo not drawn) [Compound 28] | 4.40 | – | 94.2 | no activity | – | – | – | – |
| – | Cc1ccccc1SC(C1=C(O)C(=O)c2ccccc2C1=O)c1ccc([N+](=O)[O-])cc1 (stereo not drawn) [Compound 34] | 4.08 | – | 96 | no activity | – | – | – | – |
| – | CCCSC(C1=C(O)C(=O)c2ccccc2C1=O)c1ccc([N+](=O)[O-])cc1 (stereo not drawn) [Compound 35] | < 3.70 | < 3.70 | 75.1 | – | – | – | – | – |
| – | O=C1C(O)=C(C(Sc2ccc3ccccc3c2)c2ccc([N+](=O)[O-])cc2)C(=O)c2ccccc21 (stereo not drawn) [Compound 36] | < 3.70 | < 3.70 | 58.2 | – | – | – | – | – |
| 4.75 | CCCCCCCCCCCCCCCCOP(=O)([O-])OCC[N+](C)(C)C [miltefosine, reference compound] | – | – | – | – | – | 4.77 | 6.85 | 122 |
